Reference: doi:10.1101/2024.08.19.608619, “Discovery of potent SARS-CoV-2 nsp3 macrodomain inhibitors uncovers lack of translation to cellular antiviral response” (bioRxiv, 2024)
Several values for one entry are separate records, joined by “and”; a condition that tells them apart may be missing. Identical values can stand only once.

Key:
KOR receptor = biological target: T1, KOR receptor (Homo sapiens, UniProt P41145); test: Eurofins CEREP panel, KOR; assay type: binding; details: kappa (h) (KOP) (agonist radioligand); test compound concentration 10 uM
T1 construct: purchased Eurofins Cerep (SafetyScreen44), recognised from the panel format
T1 sequence (P41145 whole entry): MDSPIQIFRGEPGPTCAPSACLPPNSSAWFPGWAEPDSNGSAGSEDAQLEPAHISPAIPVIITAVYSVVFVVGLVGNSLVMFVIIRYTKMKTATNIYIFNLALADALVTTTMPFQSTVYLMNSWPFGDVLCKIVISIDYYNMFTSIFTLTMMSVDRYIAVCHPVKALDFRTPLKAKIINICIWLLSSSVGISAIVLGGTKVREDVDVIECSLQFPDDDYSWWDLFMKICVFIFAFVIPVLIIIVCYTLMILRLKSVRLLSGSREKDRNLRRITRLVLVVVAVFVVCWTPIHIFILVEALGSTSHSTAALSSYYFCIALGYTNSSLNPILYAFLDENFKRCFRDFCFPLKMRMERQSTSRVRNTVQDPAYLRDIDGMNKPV

[1] = In vitro rat hepatocyte stability; assay type: in vitro ADME
Excerpt: (§1) Supplement media-1.zip/Hepatocyte_Stability.csv, table | column: clint; t_half

[2] = In vitro dog hepatocyte stability; assay type: in vitro ADME
Excerpt: as §1

CYP = CYP inhibition; assay type: in vitro ADME; details: In vitro CYP inhibition pooled; for potency: potency class in words
Excerpt: Supplement media-1.zip/CYP_Inhibition.csv, table | column: ic50; potency

5-HT3 (h) = biological target: T2, 5-HT3 (h) (Homo sapiens, UniProt P46098); test: In vitro CEREP profiling, 5-HT3 (h) (antagonist radioligand); assay type: binding; details: test compound concentration 10 uM
T2 construct: purchased Eurofins Cerep (SafetyScreen44), recognised from the panel format
T2 sequence (P46098 24-478): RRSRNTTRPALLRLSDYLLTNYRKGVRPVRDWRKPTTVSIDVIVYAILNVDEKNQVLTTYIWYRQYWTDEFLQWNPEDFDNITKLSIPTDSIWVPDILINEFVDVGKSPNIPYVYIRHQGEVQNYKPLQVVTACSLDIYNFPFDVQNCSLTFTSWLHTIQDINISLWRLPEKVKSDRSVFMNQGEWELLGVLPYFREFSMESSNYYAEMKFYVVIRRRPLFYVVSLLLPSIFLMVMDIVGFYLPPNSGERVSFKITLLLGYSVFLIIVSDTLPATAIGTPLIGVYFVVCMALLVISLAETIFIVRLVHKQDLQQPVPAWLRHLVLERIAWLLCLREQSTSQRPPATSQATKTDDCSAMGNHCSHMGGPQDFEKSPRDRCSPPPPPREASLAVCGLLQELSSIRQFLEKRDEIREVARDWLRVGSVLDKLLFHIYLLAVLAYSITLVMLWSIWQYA
Excerpt: (§2) Supplement media-1.zip/Safety_Panel_Profile.csv, table | column: perc_inhibition

M1 (h) = biological target: T3, M1 (h) (Homo sapiens, UniProt P11229); test: In vitro CEREP profiling, M1 (h) (antagonist radioligand); assay type: binding; details: test compound concentration 10 uM
T3 construct: purchased Eurofins Cerep (SafetyScreen44), recognised from the panel format
T3 sequence (P11229 1-460): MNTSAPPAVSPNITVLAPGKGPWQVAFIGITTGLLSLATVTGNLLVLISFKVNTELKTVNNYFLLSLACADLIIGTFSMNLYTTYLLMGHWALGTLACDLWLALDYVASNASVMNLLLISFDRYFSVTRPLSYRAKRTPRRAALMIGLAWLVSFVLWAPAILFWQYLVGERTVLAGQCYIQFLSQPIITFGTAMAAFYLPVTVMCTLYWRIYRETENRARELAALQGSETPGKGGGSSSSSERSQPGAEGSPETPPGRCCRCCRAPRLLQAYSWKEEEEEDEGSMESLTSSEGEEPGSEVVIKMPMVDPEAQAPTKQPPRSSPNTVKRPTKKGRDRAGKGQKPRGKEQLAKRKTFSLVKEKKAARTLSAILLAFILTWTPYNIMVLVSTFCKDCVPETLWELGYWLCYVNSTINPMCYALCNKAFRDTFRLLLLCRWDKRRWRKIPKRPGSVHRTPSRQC
Excerpt: as §2

Lck kinase (h) = biological target: T4, Lck kinase (h) (Homo sapiens, UniProt P06239); test: In vitro CEREP profiling, Lck kinase (h); assay type: biochemical; details: test compound concentration 10 uM; Enzyme and Cell-based assays
T4 construct: purchased Eurofins Cerep (SafetyScreen44), recognised from the panel format
T4 sequence (P06239 whole entry): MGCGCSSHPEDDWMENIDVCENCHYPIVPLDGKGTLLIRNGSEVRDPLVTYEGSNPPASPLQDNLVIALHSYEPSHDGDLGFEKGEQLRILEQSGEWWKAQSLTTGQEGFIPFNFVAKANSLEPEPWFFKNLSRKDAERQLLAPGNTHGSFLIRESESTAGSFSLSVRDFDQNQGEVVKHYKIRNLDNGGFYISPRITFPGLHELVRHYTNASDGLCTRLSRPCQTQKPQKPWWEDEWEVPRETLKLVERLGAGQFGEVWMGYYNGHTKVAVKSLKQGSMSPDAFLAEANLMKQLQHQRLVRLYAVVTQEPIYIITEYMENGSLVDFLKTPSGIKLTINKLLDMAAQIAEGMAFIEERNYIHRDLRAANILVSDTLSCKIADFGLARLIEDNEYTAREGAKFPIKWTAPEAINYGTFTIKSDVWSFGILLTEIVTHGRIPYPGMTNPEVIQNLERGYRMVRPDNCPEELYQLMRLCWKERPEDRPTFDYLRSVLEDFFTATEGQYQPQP
Excerpt: as §2

CB2 (h) = biological target: T5, CB2 (h) (Homo sapiens, UniProt P34972); test: In vitro CEREP profiling, CB2 (h) (agonist radioligand); assay type: binding; details: test compound 10 uM
T5 construct: purchased Eurofins Cerep (SafetyScreen44), recognised from the panel format
T5 sequence (P34972 whole entry): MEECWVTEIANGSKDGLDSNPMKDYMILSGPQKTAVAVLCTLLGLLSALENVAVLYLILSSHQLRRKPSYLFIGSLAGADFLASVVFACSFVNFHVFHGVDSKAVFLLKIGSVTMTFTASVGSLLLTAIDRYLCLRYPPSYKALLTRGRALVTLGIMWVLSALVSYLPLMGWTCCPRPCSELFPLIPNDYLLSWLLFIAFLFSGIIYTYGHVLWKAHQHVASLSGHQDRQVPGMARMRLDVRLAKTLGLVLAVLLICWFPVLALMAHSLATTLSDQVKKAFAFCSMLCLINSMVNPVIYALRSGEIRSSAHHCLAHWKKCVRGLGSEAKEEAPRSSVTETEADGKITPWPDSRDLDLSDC
Excerpt: as §2

V1a (h) = biological target: T6, V1a (h) (Homo sapiens, UniProt P37288); test: In vitro CEREP profiling, V1a (h) (agonist radioligand); assay type: binding; details: test compound concentration 10 uM
T6 construct: purchased Eurofins Cerep (SafetyScreen44), recognised from the panel format
T6 sequence (P37288 whole entry): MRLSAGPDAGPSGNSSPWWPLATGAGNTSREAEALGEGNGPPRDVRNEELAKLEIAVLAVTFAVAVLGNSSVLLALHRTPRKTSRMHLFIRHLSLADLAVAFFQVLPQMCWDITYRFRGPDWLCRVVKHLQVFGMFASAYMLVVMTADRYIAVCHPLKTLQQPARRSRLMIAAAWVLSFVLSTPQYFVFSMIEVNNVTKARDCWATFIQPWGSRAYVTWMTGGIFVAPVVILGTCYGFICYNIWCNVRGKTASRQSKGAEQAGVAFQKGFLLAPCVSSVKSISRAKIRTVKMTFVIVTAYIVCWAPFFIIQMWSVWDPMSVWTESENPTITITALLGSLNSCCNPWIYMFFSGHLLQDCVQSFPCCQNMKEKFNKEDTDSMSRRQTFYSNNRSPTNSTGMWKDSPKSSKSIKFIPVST
Excerpt: as §2

delta (DOP) (h) = biological target: T7, delta (DOP) (h) (Homo sapiens, UniProt P41143); test: In vitro CEREP profiling, delta (DOP) (h) (agonist radioligand); assay type: binding; details: test compound concentration 10 uM
T7 construct: purchased Eurofins Cerep (SafetyScreen44), recognised from the panel format
T7 sequence (P41143 whole entry): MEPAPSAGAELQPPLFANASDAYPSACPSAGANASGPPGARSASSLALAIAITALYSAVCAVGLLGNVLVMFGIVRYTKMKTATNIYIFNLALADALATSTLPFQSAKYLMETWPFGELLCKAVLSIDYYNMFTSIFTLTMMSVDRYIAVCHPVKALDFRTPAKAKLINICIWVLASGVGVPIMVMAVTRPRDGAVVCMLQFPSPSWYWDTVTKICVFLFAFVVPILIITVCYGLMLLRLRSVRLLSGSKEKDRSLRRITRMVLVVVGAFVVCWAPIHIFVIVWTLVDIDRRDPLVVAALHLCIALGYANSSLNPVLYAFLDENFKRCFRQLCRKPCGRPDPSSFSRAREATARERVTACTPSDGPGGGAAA
Excerpt: as §2

CCK1 (CCKA) (h) = biological target: T8, CCK1 (CCKA) (h) (Homo sapiens, UniProt P32238); test: In vitro CEREP profiling, CCK1 (CCKA) (h) (agonist radioligand); assay type: binding; details: test compound 10 uM
T8 construct: purchased Eurofins Cerep (SafetyScreen44), recognised from the panel format
T8 sequence (P32238 1-428): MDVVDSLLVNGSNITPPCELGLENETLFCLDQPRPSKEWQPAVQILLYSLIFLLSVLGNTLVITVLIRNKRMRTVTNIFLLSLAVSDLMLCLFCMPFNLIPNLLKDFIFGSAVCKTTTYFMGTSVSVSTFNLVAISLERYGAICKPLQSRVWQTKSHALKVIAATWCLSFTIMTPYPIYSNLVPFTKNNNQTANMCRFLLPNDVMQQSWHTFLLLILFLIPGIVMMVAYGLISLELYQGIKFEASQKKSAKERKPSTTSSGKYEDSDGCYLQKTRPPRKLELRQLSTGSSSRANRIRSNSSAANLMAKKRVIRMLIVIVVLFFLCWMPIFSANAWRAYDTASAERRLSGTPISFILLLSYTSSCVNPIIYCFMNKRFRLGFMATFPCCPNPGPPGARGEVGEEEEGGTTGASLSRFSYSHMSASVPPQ
Excerpt: as §2

mu (MOP) (h) = biological target: T9, mu (MOP) (h) (Homo sapiens, UniProt P35372); test: In vitro CEREP profiling, mu (MOP) (h) (agonist radioligand); assay type: binding; details: test compound concentration 10 uM
T9 construct: purchased Eurofins Cerep (SafetyScreen44), recognised from the panel format
T9 sequence (P35372 whole entry): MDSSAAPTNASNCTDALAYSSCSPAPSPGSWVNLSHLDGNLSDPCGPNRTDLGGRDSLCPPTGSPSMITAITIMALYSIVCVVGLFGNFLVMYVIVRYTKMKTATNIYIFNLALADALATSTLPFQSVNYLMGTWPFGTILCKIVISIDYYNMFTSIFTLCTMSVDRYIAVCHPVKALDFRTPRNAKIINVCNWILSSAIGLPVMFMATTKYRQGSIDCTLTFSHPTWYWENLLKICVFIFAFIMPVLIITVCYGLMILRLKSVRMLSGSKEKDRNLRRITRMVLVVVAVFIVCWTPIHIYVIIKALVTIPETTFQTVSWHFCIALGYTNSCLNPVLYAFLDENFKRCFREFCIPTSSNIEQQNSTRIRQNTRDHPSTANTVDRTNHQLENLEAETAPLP
Excerpt: as §2

HeLa-ACE2 cells = details: HeLa-ACE2 cytotoxicity; for perc_max_measured: highest measured response of the dose series; for perc_min_measured: lowest measured response of the dose series
hERG = hERG (Homo sapiens, UniProt Q12809); test: In vitro hERG cardiotoxocity; details: for IC50: top test concentration 30 uM
hERG, sequence (Q12809 whole entry): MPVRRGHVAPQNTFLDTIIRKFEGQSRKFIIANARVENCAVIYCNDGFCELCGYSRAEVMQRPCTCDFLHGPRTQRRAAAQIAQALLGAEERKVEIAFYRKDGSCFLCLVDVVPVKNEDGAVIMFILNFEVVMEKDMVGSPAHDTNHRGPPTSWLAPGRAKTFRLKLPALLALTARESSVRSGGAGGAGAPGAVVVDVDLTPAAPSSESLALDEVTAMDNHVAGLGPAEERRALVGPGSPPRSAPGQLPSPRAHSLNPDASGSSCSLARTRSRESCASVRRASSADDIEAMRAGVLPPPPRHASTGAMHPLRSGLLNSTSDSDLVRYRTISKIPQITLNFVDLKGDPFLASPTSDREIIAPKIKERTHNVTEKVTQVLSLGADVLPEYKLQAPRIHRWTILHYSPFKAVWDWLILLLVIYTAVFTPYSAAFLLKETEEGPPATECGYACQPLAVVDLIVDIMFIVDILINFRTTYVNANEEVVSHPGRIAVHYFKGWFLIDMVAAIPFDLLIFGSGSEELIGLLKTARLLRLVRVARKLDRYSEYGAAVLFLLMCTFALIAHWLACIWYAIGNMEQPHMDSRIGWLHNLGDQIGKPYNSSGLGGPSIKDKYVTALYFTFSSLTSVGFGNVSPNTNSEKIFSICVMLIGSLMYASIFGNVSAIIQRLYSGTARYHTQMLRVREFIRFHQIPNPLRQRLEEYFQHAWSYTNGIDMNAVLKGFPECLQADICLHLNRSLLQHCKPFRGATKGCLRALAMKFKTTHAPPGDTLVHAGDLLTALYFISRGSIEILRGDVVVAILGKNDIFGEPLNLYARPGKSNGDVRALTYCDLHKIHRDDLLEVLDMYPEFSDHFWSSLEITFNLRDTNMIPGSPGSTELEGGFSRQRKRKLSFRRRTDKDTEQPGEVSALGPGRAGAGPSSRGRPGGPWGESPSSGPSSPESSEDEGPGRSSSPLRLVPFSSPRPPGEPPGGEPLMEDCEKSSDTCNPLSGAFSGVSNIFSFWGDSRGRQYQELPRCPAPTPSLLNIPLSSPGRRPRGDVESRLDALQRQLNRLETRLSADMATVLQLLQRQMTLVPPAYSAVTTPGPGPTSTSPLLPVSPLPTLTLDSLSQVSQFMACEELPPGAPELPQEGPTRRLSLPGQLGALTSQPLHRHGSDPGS
Excerpt: Supplement media-1.zip/Cardiotoxicity.csv, table | column: ic50; perc_inhibition_top_conc

5-HT1B (h) = biological target: T10, 5-HT1B (h) (Homo sapiens, UniProt P28222); test: In vitro CEREP profiling, 5-HT1B (h) (antagonist radioligand); assay type: binding; details: test compound concentration 10 uM
T10 construct: purchased Eurofins Cerep (SafetyScreen44), recognised from the panel format
T10 sequence (P28222 whole entry): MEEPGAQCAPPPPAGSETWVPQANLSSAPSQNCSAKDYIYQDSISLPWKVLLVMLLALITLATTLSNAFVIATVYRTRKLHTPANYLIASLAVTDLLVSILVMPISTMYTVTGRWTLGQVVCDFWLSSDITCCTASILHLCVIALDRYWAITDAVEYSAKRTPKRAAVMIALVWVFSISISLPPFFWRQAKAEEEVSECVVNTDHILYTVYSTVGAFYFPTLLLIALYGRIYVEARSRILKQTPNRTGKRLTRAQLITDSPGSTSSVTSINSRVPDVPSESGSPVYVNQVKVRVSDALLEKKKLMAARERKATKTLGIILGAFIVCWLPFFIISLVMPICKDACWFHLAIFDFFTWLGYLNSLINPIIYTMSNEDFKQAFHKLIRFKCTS
Excerpt: as §2

NMDA = test: In vitro CEREP profiling, NMDA (antagonist radioligand); assay type: binding
Excerpt: as §2

| Structure (SMILES) | perc_inhibition (% inhibition of the binding of a ligand specific for each target) (KOR receptor) [%] | clint [1] [uL/min/1E6 cells] | t_half [1] [min] | clint [2] [uL/min/1E6 cells] | t_half [2] [min] | IC50 (CYP; isoform 1A2) [µM] | potency (CYP; isoform 1A2) | IC50 (CYP; isoform 2C9) [µM] | potency (CYP; isoform 2C9) | IC50 (CYP; isoform 2C19) [µM] | potency (CYP; isoform 2C19) | IC50 (CYP; isoform 2D6) [µM] | potency (CYP; isoform 2D6) | IC50 (CYP; isoform 3A4) [µM] | potency (CYP; isoform 3A4) | perc_inhibition (% inhibition of the binding of a ligand specific for each target) (5-HT3 (h)) [%] | perc_inhibition (% inhibition of the binding of a ligand specific for each target) (M1 (h)) [%] | perc_inhibition: % inhibition of control enzyme activity, Lck kinase (h) (Lck kinase (h)) [%] | perc_inhibition (% inhibition of the binding of a ligand specific for each target) (CB2 (h)) [%] | perc_inhibition (% inhibition of the binding of a ligand specific for each target) (V1a (h)) [%] | also measured |
| --- | --- | --- | --- | --- | --- | --- | --- | --- | --- | --- | --- | --- | --- | --- | --- | --- | --- | --- | --- | --- | --- |
| Cn1ncc(-c2cc3c(N[C@@H](c4ccc5c(n4)OCCO5)C(C)(C)C)ncnc3[nH]2)c1C#N [ASAP-0011221] | 33 | 185.0 | 3.76 | 3.81 | 182.0 | > 50 | weak | 42.6 | weak | > 50 | weak | 20.5 | weak | 8.79 | moderate | 3 | 13 | 47 | 31 | 57 | perc_inhibition (% inhibition of the binding of a ligand specific for each target) (delta (DOP) (h)): 15%; perc_inhibition (% inhibition of the binding of a ligand specific for each target) (CCK1 (CCKA) (h)): 4%; perc_inhibition (% inhibition of the binding of a ligand specific for each target) (mu (MOP) (h)): 28%; CC50 (HeLa-ACE2 cells): > 20 µM; cc10 (HeLa-ACE2 cells): > 10.0 µM and > 20.0 µM; perc_max_measured (HeLa-ACE2 cells): 97.859% and 124.489%; perc_min_measured (HeLa-ACE2 cells): 51.321% and 74.575%; IC50 (hERG): 19.5 µM; perc_inhibition (% inhibition of the binding of a ligand specific for each target) (5-HT1B (h)): 18%; perc_inhibition (% inhibition of the binding of a ligand specific for each target) (NMDA; test compound concentration 10 uM): 11% |
| C[C@H](C(=O)O)[C@@H](NC(=O)c1ncnc2[nH]ccc12)c1ccc(Br)cc1 [ASAP-0014722] | 2 | < 3.0 | > 231.0 | < 3.0 | > 231.0 | > 50 | weak | 5.14 | moderate | > 50 | weak | > 50 | weak | > 50 | weak | 2 | -1 | 4 | -5 | 62 | perc_inhibition (% inhibition of the binding of a ligand specific for each target) (delta (DOP) (h)): -24%; perc_inhibition (% inhibition of the binding of a ligand specific for each target) (CCK1 (CCKA) (h)): 6%; perc_inhibition (% inhibition of the binding of a ligand specific for each target) (mu (MOP) (h)): -10%; CC50 (HeLa-ACE2 cells): > 20 µM; cc10 (HeLa-ACE2 cells): > 20.0 µM; perc_max_measured (HeLa-ACE2 cells): 102.029% and 107.127%; perc_min_measured (HeLa-ACE2 cells): 80.657% and 84.357%; perc_inhibition_top_conc (hERG; at top test concentration 30 uM): 28.0%; IC50 (hERG): > 30 µM; perc_inhibition (% inhibition of the binding of a ligand specific for each target) (5-HT1B (h)): 1%; perc_inhibition (% inhibition of the binding of a ligand specific for each target) (NMDA; test compound 10 uM): 4% |
